Assay results as given in patent US10407712B2, “Methods, compositions and kits for high throughput kinase activity screening using mass spectrometry and stable isotopes” (President and Fellows of Harvard College, priority 2008, dated 2019).

Legend:
HeLa cell lysates = assay: KAYAK in vitro kinase assay, lysates of asynchronous, G1/S- or G2/M-arrested HeLa cells; assay type: biochemical, human
Protocol: For cell cycle examples, HeLa cells were synchronized by double thymidine block for G1/S-arrest and by 0.2 μg/ml nocodazole for G2/M-arrest as described (Dephoure et al. 2008 Proc Natl Acad Sci USA 105: 10762-10767). Synchronization was confirmed by flow cytometry.
For cell lysis, the media were removed, and cells were washed with ice-cold phosphate-buffered saline (PBS) and lysed with ice-cold lysis buffer (10 mM K2HPO4 pH 7.5, 1 mM EDTA, 10 mM MgCl2, 50 mM β-glycerophosphate, 5 mM EGTA, 0.5% Nonidet P-40, 0.1% Brij 35, 0.1% deoxycholic acid, 1mM sodium orthovanadate, 1mM phenylmethyl-sulfonyl fluoride, 5 μg/ml leupeptin and 5 μg/ml pepstatin A). Lysates were centrifuged at 10,000 rpm for 10 min to remove cell debris, and clear supernatant was used for immunoblotting and in vitro kinase assays. Protein concentration was determined by Bradford assay (Biorad, Hercules, Calif.).
Peptides were synthesized, purified and quantified as described in Yu et al. 2009 Proc Natl Acad Sci USA 106: 11606-11611, hereby incorporated by reference herein in its entirety. Each substrate peptide (250 pmol) was mixed to a final concentration of 5 μM in the 50 μL reaction mixture. Alternatively, reactions were performed using 6 μg cell lysate aliquotes mixed to a final volume of 20 μl. Cell lysate or other kinase source was added to the substrate mixture in 25 mM Tris-Cl, pH 7.5, containing 5 mM ATP, 7.5 mM MgCl2, 0.2 mM EGTA, 7.5 mM β-glycerophosphate, 0.1 mM Na3VO4, and 0.1 mM DTT. The reaction was incubated at 25° C. for 60 min and then terminated by the addition of 100 μl of 1% trifluoroacetic acid (TFA) containing a known amount of an internal standard (typically 20 pmol). Alternatively, the reaction was incubated at 20° C. for 45 min before termination with TFA.
Forty-five individual in vitro kinase reaction mixtures were combined and desalted by using Sep-Pak C18 cartridge (Waters, Milford, Mass.). Phosphopeptides were enriched by immobilized metal ion chromatography (IMAC) with 20 μl of beads (Phos-Select iron affinity gel; Sigma, St. Louis, Mo.) and subsequently desalted by using Empore C18 solid phase extraction disks (3M, St. Paul, Minn.) as described previously.
Quantitation of the target peptide-internal standard ratios was performed by first constructing the extracted ion chromatogram for the most abundant charge state for each peptide using a ±10 ppm window. Chromatograms were integrated using Qual/Quan browser (Xcalibur 2.0.5, Thermo Fisher, San Jose, Calif.). Since the phosphorylated peptides generated from the in vitro kinase reactions were chemically identical to the internal standards, they were assumed to have the same ionization efficiency. Therefore, the amount of each phosphorylated peptide was calculated by direct ratio to the internal standard level.
To test substrate suitability in a multiplexed assay, the phosphorylation activities were measured using […] of each substrate peptide, 6 μg lysate, and 5 mM ATP in a plate format. Reactions proceeded for 60 minutes followed by acidification and the addition of isotope-labeled reference peptides. After pooling 45 samples, phosphopeptide enrichment was followed by liquid-chromatography (LC) separation and on-line peptide detection by high-resolution mass spectrometry.
In order to examine target peptides with cell-cycle-dependent phosphorylation, kinase activities in asynchronously growing HeLa cells were profiled and the profiles were compared with those of cells synchronized in G1/S and G2/M phase using a double-thymidine block and nocodazole arrest, respectively (FIG. 3B).

Src = biological target: T1, Src (Homo sapiens, UniProt P12931); assay: In vitro kinase reaction of H5 peptide with purified Src; assay type: biochemical
T1 construct: Src (full length); purchased Cell Signaling Technology (Danvers, Mass.)
From the text: (§1) FIG. 7D is a line graph showing in vitro phosphorylation of peptide H5 (SEQ ID NO: 87) using each of purified Src and EGFR.
(§2) Purified human active kinases of Akt1 (full length), extracellular signal-regulated kinase 1 (ERK1, 1-379), mitogen-activated protein kinase kinase 1 (MEK1, 1-393), 90 kDa ribosomal S6 kinases 1 (RSK1, 1-735), cAMP-dependent protein kinase (PKA) catalytic subunit-α (PKA Cα, 1-351), protein kinase Cα (PKCα, full length), epidermal growth factor (EGF) receptor (EGFR, 672-1210), platelet-derived growth factor (PDGF) receptor α (PDGFRα, 550-1090), vascular endothelial growth factor (VEGF) receptor 1 (VEGFR1 784-1338), Src (full length), casein kinase 2 (CK2, full length), Aurora A (1-403), AMP-activated protein kinase α1β1γ1 (AMPK α1β1γ1, full length), glycogen synthase kinase-3α (GSK-3α, 1-483) and MAP/microtubule affinity-regulating kinase 1 (MARK 1, full length) were obtained from Cell Signaling Technology (Danvers, Mass.). Cdc2/cyclin B1 (full length) and insulin-like growth factor (IGF)-I receptor (IGFIR, 959-1367) were obtained from Upstate (Temecula, Calif.).
(§3) In order to identify the kinase that phosphorylates p55 (Tyr-199) lysates of serum-starved HEK293 cells were used for insulin, IGF and EGF stimulation. […]

EGFR = biological target: T2, EGFR (Homo sapiens, UniProt P00533); assay: In vitro kinase reaction of H5 peptide with purified EGFR; assay type: biochemical
T2 construct: epidermal growth factor (EGF) receptor (EGFR, 672-1210); purchased Cell Signaling Technology (Danvers, Mass.)
From the text: as §1, §2, §3

Src family kinase = assay: Immunoblot of HEK293 cells treated with Src family kinase inhibitor; assay type: cell-based, human; conditions: asynchronously growing HEK293 cells
Protocol: FIG. 7E is a photograph of immunoblot data of lysates following treatment of asynchronously growing HEK293 cells with Sic family kinase (SFK) specific inhibitor SU6656 in starved or serum-fed cells.
Lysates were resolved on 4 to 12% SDS/PAGE, transferred onto Potran membranes (Whatman), blocked with 3% milk in TBST (Tris Buffered Saline Tween-20), incubated with 1:1,000 dilution of primary antibody at 4° C. overnight, washed, and incubated with a 1:5,000 dilution of second antibody (HRP-conjugated) with 3% milk in TBST for 1 h at room temperature. Bands were visualized with ECL solution (Roux et al. 2004 Proc Natl Acad Sci USA 101: 13489-[…]).
To further investigate whether this is a Src-dependent site in vivo, asynchronously growing HEK293 cells were treated with the specific Src family kinase inhibitor, Su6656. […] Further, MCF10A cells expressing v-Src:estrogen receptor (Reginato et al. 2005 Mol Cell Biol 25: 4591-4601) were treated with 1 μM 4-hydroxytamoxifen (4-HT) to activate v-Src as a function of time (FIG. 7F).

| phosphorylation by Src (Src) | phosphorylation by EGFR (EGFR) | Compound | increase in phosphorylation in G2/M (HeLa cell lysates; G2/M (nocodazole-arrested) HeLa lysate vs asynchronously growing cells) [fold] | G2/M: changed phosphorylation (HeLa cell lysates; G2/M phase compared to asynchronously growing HeLa cells) | level of phospho-Src (Tyr-416) (Src family kinase) | level of phospho-p55 (Tyr-199) (Src family kinase) |
| --- | --- | --- | --- | --- | --- | --- |
| robust phosphorylation | not | EYDRLYEEYTPFR (The sequence was designed and synthesized) [H5] | 13 | ++ (A change of more than +4 and −4 fold is indicated by “++” and “−−”, respectively.) |  |  |
|  |  | CN(C)S(=O)(=O)c1ccc2c(c1)/C(=C/c1cc3c([nH]1)CCCC3)C(=O)N2 [Su6656, SU6656] |  |  | diminished | diminished |
